According to US20220125837A1, “METHODS FOR CONTROLLED ELIMINATION OF THERAPEUTIC CELLS” (Bellicum Pharmaceuticals, Inc., priority 2014, published 2022):
Where “and” joins values, the source holds several entries; their conditions need not be identical. Equal values may be shown once.

How the values were obtained:
Assay type in all cases: cell-based, human
[1] = tested on: gene-modified allodepleted cells (SFG.iCasp9.2A.CD19); assay: Induction of apoptosis with AP20187 in gene-modified allodepleted cells (annexin V/7-AAD)
Description: (§1) Suicide gene functionality was assessed by adding a small molecule synthetic homodimerizer, AP20187 (Ariad Pharmaceuticals; Cambridge, Mass.), at 10 nM final concentration the day following CD19 immunomagnetic selection. Cells were stained with annexin V and 7-amino-actinomycin (7-AAD)(BD Pharmingen) at 24 hours and analyzed by flow cytometry. Cells negative for both annexin V and 7-AAD were considered viable, cells that were annexin V positive were apoptotic, and cells that were both annexin V and 7-AAD positive were necrotic. The percentage killing induced by dimerization was corrected for baseline viability as follows: Percentage killing=100%−(% Viability in AP20187-treated cells÷% Viability in non-treated cells).
(§2) The day following immunomagnetic selection, 10 nM of the chemical inducer of dimerization, AP20187, was added to induce apoptosis, which appeared within 24 hours.

[2] = tested on: gene-modified allodepleted cells (SFG.iCasp9.2A.CD19); assay: Suicide gene function after extended culture and reactivation
Description: Cells were maintained in T cell medium containing 50 U/ml IL-2 until 22 days after transduction. A portion of cells was reactivated on 24-well plates coated with […] OKT3 and 1 μg/ml anti-CD28 (Clone CD28.2, BD Pharmingen, San Jose, Calif.) for 48 to 72 hours. CD19 expression and suicide gene function in both reactivated and non-reactivated cells were measured on day 24 or 25 post transduction.
To assess the stability of transgene expression and function, cells were maintained in T cell culture medium and low dose IL-2 (50 U/ml) until […] after transduction. A portion of cells was then reactivated with OKT3/anti-CD28. CD19 expression was analyzed by flow cytometry 48 to 72 hours later, and suicide gene function was assessed by treatment with 10 nM AP20187. The obtained are for cells from day 5 post transduction (ie, 1 day after CD 19 selection) and day 24 post transduction, with or without 48-72 hours of reactivation (5 experiments). In 2 experiments, CD25 selection was performed after OKT3/aCD28 activation to further enrich activated cells. Error bars represent standard deviation. * indicates p<0.05 when compared to cells from day 5 post transduction. By day 24, surface CD19 expression fell from about 98%±1% to about 88%±4% (p<0.05) with a parallel decrease in mean fluorescence intensity (MFI) from 793±128 to 478±107 (p<0.05) (see FIG. 13B). Similarly, there was a significant reduction in suicide gene function: residual viability was 19.6±5.6% following treatment with AP20187; after correction for baseline viability of 54.8±20.9%, this equated to killing efficiency of only 63.1±6.2%.
To determine whether the decrease in transgene expression with time was due to reduced transcription following T cell quiescence or to elimination of transduced cells, a portion of cells were reactivated on day 22 post transduction with OKT3 and anti-CD28 antibody. […] CD19 expression increased from about 88%±4% to about 93%±4% (p<0.01) and CD19 MFI increased from 478±107 to 643±174 (p<0.01). […] 2±1.2%, which was the same as killing efficiency on day 5 post transduction (93.1±3.5%). Killing of the CD25 negative fraction was 78.6±9.1%.

non-transduced cells = assay: Viability of non-transduced cells with AP20187; settings: n=6
Description: as §1, §2

virus-specific T cells = assay: AP20187 on allostimulated gene-modified cells, pentamer analysis of virus-specific T cells; settings: 10 nM; after 4 days reactivation with allogeneic PBMC
Description: In some experiments, cells also were cultured for 3 weeks post transduction and stimulated with 30G-irradiated allogeneic PBMC at a responder:stimulator ratio of 1:1. After 4 days of co-culture, a portion of cells was treated with 10 nM AP20187. Killing was measured by annexin V/7-AAD staining at 24 hours, and the effect of dimerizer on bystander virus-specific T cells was assessed by pentamer analysis on AP20187-treated and untreated cells.
An observation of note was that many virus-specific T cells were spared when dimerizer was used to deplete gene-modified cells that have been re-activated with allogeneic PBMC, rather than by non-specific mitogenic stimuli. […] Gene-modified allodepleted cells were maintained in culture for 3 weeks post-transduction to allow transgene down-modulation. Cells were stimulated with allogeneic PBMC for 4 days, following which a portion was treated with 10 nM AP20187.
The frequency of EBV-specific T cells and CMV-specific T cells were quantified by pentamer analysis before allostimulation, after allostimulation, and after treatment of allostimulated cells with dimerizer. The percentage of virus-specific T cells decreased after allostimulation. Following treatment with dimerizer, virus-specific T cells were partially and preferentially retained.

[3] = large-scale CD19 selection (n=3)

CC[C@H](C(=O)N1CCCC[C@H]1C(=O)O[C@H](CCc1ccc(OC)c(OC)c1)c1cccc(OCC(=O)NCC(CNC(=O)COc2cccc([C@@H](CCc3ccc(OC)c(OC)c3)OC(=O)[C@@H]3CCCCN3C(=O)[C@@H](CC)c3cc(OC)c(OC)c(OC)c3)c2)CN(C)C)c1)c1cc(OC)c(OC)c(OC)c1 [AP20187]
Killing efficiency after correction for baseline viability ([1]; 10 nM, 24 hours): about 92.9%±3.8%
AP20187-treated cells remaining viable ([1]; 10 nM, 24 hours, day following CD19 selection): about 5.5%±2.5%
apoptosis after treatment with dimerizer ([1]; iCasp9 donor T cells): > 90%
mean viability with AP20187 [1, 3]: about 3.9%
percentage killing [1, 3]: about 95.4%
mean viability with AP20187 ([1]; small-scale selection (n=5)): about 6.6%
percentage killing ([1]; small-scale selection (n=5)): about 91.4%
killing ([2]; CD25 negative fraction): 78.6±9.1%
killing efficiency ([2]; OKT3/aCD28-reactivated cells, day 24 or 25): ~84.6%±8.0%
killing efficiency ([2]; day 5 post transduction): 93.1±3.5%
killing efficiency ([2]; day 24 post transduction, non-reactivated): 63.1±6.2% and ~63.1%±6.2%
residual viability following treatment with AP20187 ([2]; day 24 post transduction, non-reactivated, 10 nM): 19.6±5.6%
viability of non-transduced cells with AP20187 (non-transduced cells): about 86%±9%
effect on virus-specific T cells (virus-specific T cells): spares (and thereby enriches) viral reactive subpopulations
